In US5891847A, “Treatment of degenerative eye disorders” (Ramot University Authority for Applied Research and …, priority 1992, dated 1999):

System: RCS rats
Experiment: Retinal degeneration in RCS rats: histological and morphometric analysis of the retina after daily intramuscular injections
Type: in vivo, rat
Excerpt: Royal College Surgeons (RCS) rats were used. In RCS rats, a progressive loss of photoreceptor cells, caused by a recessively autosomal mutation of the RPE (La Vail, 1981), leads to severe visual impairment. Due to the failure of pigment epithelium phagocytosis, rod outer segment material accumulates between the retina and the RPE and results in retinal degeneration. […] The age of the animals in the experiment will hereinafter be referred to in relation with the postnatal day which will be indicated as pn, wherein n=the postnatal day. This disorder is similar to age-related macular degeneration in humans in that a metabolic insufficiency of the RPE cells results in a secondary progressive photoreceptor loss and vision impairment.
Enucleated eyes removed from the orbit eyes were fixated for plastic embedding in epoxy resin (Faktorovitch 1990; La Vail, 1981). The eyes were sectioned parallel to the vertical meridian.
The histological sections which were analyzed originated from the posterior part of the eye, from ora serata to ora serata including the optic nerve. Each histological preparation was analyzed by computerized image analysis. Twelve measurements (six from each side of the optic nerve) were taken at pre-determined points. At each point the number of rows of photoreceptors in the outer nuclear layer (ONL), as well as the thickness of inner plexiform layer (IPL) were determined.
The RCS rats of the experiment were divided into three groups of rats, each group including eight rats (8 eyes). The three groups were as follows:
1. RCS rats at the age of p23 receiving no treatment.
2. RCS rats at the age of p38 receiving no treatment.
3. RCS rats at the age of p23 receiving daily intramuscular injections to the hind leg containing α-MSH analog which was prepared as described above. Each rat received 0.01 micrograms of the α-MSH analog in 0.2 ml PBS in each injection.
The rats were sacrificed at the age of p38, the eyes were enucleated and then subjected to fixation and histological sections were prepared, as described above. The histological preparations of the eyes were examined morphometrically as described above and, in addition, the retinas were also examined by light microscopy.
The effect of α-MSH analog treatment on the retinas of the rats was quantitated by measuring the two following parameters at 11 or 14 points in the retina at various distances from the optic nerve:
An experiment similar to the one described above was also carried out in which the α-MSH analog treatment of Group 3 rats was replaced by α-MSH treatment. The result of this experiment, not shown were similar to the results of the above described experiment.

[1] = RCS rats, daily i.m. injections, compared to untreated rats

With Nle^4 D-Phe^7 α-MSH [α-MSH analog] the “number of layers of photoreceptors in the ONL (histological preparation, FIG. 3)” value (RCS rat at p38, daily intramuscular injections p23 to p38, 0.01 micrograms per injection, untreated 3-4 layers) was 7-8 layers, the “mean row number in treated higher than in non-treated” value (RCS rats at p38, ONL photoreceptor rows, treated vs non-treated) was 60% and the “mean number of photoreceptor rows in ONL (FIG. 4)” value (RCS rats at p38, daily i.m. injections, 9 out of 11 points of measurement, non-treated 3.5±0.4, p<0.05) was 5.6±0.6 rows. The “thickness of the inner plexiform layer (IPL) (FIG. 5)” value (RCS rats at p38, central sector of the retina, 1.3 mm of each side of the optic nerve, untreated 23 microns, p<0.05) was 50 microns, the “effect on photoreceptor degeneration (in words)” value [1] was “rescued from degeneration” and the “effect on thickness of IPL / adjacent retinal layers (in words)” value [1] was “significantly greater”. For the same substance, the “effective dose per rat (daily intramuscular injection)” value (RCS rats, dose needed to obtain the same effect on photoreceptor degeneration and retinal layer thickness) was 0.01-0.5 microgram and the “number of rows of photoreceptors in the ONL, fold higher than non-treated” value (points 0.8 mm and 1.7 mm away from the optic nerve, Group 3 vs Group 2, p<0.001) was 2 ×.
